Measurements from patent publication US20240158370A1, “CK1 alpha AND DUAL CK1 alpha / GSPT1 DEGRADING COMPOUNDS” (Innovo Therapeutics, Inc., priority 2022, published 2024).

Assays:
CK1α = target: T1, CK1α (Homo sapiens, UniProt P48729+Q96SW2); test: HiBiT degradation assay, CK1α, Procedure A; format: cell-based; details: six hours incubation
T1 construct: CSNK1A1-HiBit KI HEK293(LgBit) Cells; host or cells: HEK293(LgBit) knock-in cells
Outline: (§1)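 Cells in DMEM + 10% FBS were treated with compound in a ten-point dose response from 10 μM to 0.005 μM (0.1% DMSO) for six hours at 37° C. Lysis with Nano-Glo HiBiT detection reagent followed, with luminescence read. DC50 and Ymin came from a 4-parameter fit.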

GSPT1 = GSPT1 (Homo sapiens, UniProt P15170+Q96SW2); test: HiBiT degradation assay, GSPT1, Procedure A; format: cell-based; parameters: HiBit-GSPT1 KI HEK293(LgBit) Cells; host or cells: HEK293(LgBit) knock-in cells; details: six hours incubation
Sequence of GSPT1 (P15170 whole entry): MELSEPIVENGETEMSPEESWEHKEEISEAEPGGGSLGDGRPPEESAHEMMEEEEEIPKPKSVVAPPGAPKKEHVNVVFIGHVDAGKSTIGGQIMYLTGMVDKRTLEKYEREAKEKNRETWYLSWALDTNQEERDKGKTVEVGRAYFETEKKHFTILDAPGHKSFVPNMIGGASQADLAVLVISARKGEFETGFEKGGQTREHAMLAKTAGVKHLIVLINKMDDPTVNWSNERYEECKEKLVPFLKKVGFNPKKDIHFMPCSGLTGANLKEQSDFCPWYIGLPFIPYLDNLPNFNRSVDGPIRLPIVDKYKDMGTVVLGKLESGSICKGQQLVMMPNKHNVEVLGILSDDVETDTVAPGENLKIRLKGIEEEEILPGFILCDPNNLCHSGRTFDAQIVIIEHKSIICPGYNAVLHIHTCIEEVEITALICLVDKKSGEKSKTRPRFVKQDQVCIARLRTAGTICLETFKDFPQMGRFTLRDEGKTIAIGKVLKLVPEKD
Sequence of GSPT1 (Q96SW2 whole entry): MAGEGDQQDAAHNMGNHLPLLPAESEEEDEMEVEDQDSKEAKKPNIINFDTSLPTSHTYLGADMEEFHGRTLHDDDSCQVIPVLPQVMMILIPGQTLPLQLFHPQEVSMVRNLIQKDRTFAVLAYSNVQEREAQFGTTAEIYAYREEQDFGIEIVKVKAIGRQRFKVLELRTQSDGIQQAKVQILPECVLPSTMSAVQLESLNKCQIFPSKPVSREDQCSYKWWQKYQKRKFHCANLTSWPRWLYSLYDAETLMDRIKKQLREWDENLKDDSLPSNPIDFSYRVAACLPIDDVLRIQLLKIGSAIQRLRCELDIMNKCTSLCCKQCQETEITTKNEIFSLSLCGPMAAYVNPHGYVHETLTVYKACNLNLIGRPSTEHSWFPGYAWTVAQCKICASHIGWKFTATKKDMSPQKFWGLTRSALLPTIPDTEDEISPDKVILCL
Sequence of GSPT1 (Q16531 whole entry partner): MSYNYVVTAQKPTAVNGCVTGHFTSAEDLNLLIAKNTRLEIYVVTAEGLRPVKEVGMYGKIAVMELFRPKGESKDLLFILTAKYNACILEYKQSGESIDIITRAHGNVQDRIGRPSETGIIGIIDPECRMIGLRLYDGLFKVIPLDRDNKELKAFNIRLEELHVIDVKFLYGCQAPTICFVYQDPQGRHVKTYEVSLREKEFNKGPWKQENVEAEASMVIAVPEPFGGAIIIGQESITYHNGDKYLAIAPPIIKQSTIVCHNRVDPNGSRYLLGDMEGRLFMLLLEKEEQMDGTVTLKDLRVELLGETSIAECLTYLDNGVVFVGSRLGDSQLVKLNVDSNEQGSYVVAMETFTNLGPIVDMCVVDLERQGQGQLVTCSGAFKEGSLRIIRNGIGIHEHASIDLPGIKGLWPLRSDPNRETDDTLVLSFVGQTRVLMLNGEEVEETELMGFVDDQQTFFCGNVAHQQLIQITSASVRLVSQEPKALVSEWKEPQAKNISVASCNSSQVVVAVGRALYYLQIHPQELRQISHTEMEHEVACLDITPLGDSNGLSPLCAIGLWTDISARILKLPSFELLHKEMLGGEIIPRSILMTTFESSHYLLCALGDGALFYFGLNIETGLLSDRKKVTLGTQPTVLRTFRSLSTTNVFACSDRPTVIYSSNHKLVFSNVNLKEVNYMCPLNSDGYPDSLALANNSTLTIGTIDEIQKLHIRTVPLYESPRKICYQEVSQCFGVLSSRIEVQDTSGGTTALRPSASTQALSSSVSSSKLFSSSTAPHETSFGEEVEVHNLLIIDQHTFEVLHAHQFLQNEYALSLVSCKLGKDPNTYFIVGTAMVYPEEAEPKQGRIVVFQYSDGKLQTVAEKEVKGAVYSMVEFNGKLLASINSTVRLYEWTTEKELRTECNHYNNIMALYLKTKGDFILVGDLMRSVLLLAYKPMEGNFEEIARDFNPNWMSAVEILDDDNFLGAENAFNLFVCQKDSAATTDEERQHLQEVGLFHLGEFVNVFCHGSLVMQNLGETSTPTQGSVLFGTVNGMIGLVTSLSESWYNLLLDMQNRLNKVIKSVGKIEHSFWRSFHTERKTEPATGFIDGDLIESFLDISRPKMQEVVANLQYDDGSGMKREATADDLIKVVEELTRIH
Outline: as §1

T1 sequence (P48729 whole entry): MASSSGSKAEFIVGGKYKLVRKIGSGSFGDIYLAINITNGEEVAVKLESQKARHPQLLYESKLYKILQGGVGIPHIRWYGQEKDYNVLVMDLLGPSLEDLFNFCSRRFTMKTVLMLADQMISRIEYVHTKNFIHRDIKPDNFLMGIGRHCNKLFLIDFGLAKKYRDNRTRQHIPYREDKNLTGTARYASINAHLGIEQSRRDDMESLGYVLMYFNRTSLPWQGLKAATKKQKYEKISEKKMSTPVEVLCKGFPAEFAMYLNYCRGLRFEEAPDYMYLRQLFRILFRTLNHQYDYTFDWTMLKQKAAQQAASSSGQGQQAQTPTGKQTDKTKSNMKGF
T1 sequence (Q96SW2 whole entry): as the sequence (Q96SW2 whole entry) above
T1 sequence (Q16531 whole entry partner): as the sequence (Q16531 whole entry partner) above

Row | SMILES | CK1α Ymin (CK1α) | DC50 (CK1α) [nM] | DC50 (GSPT1) [nM] | GSPT1 Ymin (GSPT1)
1 | Cn1ncc(-c2ccc3c(c2)CN(C2CCC(=O)NC2=O)C3=O)c1-c1ccc(Cl)c(C#N)c1 (stereo not shown) [Example 119] | E (E = >25-75% remaining) | ≥ 25 | ≥ 25 | F (F = >75-100% remaining)
2 | Cn1ncc(-c2ccc3c(c2)CN(C2CCC(=O)NC2=O)C3=O)c1-c1cc(F)ccc1Cl (stereo not shown) [Example 120] | E (E = >25-75% remaining) | ≥ 25 | ≥ 25 | F (F = >75-100% remaining)
3 | CNC(=O)c1cccc(-c2c(-c3ccc4c(c3)CN(C3CCC(=O)NC3=O)C4=O)cnn2C)c1 (stereo not shown) [Example 122] | E (E = >25-75% remaining) | ≥ 25 | ≥ 25 | F (F = >75-100% remaining)
4 | Cc1c(F)cccc1-c1c(-c2ccc3c(c2)CN(C2CCC(=O)NC2=O)C3=O)cnn1C (stereo not shown) [Example 125] | E (E = >25-75% remaining) | < 25 | ≥ 25 | F (F = >75-100% remaining)
5 | Cc1ccsc1-c1c(-c2ccc3c(c2)CN(C2CCC(=O)NC2=O)C3=O)cnn1C (stereo not shown) [Example 126] | D (D = >10- 25% remaining) | < 25 | ≥ 25 | F (F = >75-100% remaining)
6 | Cc1csc(-c2c(-c3ccc4c(c3)CN(C3CCC(=O)NC3=O)C4=O)cnn2C)c1 (stereo not shown) [Example 128] | D (D = >10- 25% remaining) | < 25 | ≥ 25 | F (F = >75-100% remaining)
7 | Cn1ncc(-c2ccc3c(c2)CN(C2CCC(=O)NC2=O)C3=O)c1-c1ccc(F)cc1F (stereo not shown) [Example 130] | E (E = >25-75% remaining) | < 25 | ≥ 25 | F (F = >75-100% remaining)
8 | Cn1ncc(-c2ccc3c(c2)CN(C2CCC(=O)NC2=O)C3=O)c1-c1ccsc1Cl (stereo not shown) [Example 131] | E (E = >25-75% remaining) | < 25 | ≥ 25 | F (F = >75-100% remaining)
9 | COc1ccc(C)cc1-c1c(-c2ccc3c(c2)CN(C2CCC(=O)NC2=O)C3=O)cnn1C (stereo not shown) [Example 137] | E (E = >25-75% remaining) | < 25 | < 25 | F (F = >75-100% remaining)
10 | Cn1ncc(-c2ccc3c(c2)CN(C2CCC(=O)NC2=O)C3=O)c1-c1cc(F)cc(F)c1 (stereo not shown) [Example 139] | E (E = >25-75% remaining) | ≥ 25 | < 25 | F (F = >75-100% remaining)
11 | CN(C)C(=O)c1cccc(-c2c(-c3ccc4c(c3)CN(C3CCC(=O)NC3=O)C4=O)cnn2C)c1 (stereo not shown) [Example 140] | E (E = >25-75% remaining) | ≥ 25 | < 25 | E (E = >25-75% remaining)
12 | COc1ccc(-c2c(-c3ccc4c(c3)CN(C3CCC(=O)NC3=O)C4=O)cnn2C)c(C)c1 (stereo not shown) [Example 143] | D (D = >10- 25% remaining) | < 25 | ≥ 25 | F (F = >75-100% remaining)
13 | COc1ccc(-c2c(-c3ccc4c(c3)CN(C3CCC(=O)NC3=O)C4=O)cnn2C)cc1Cl (stereo not shown) [Example 146] | D (D = >10- 25% remaining) | < 25 | ≥ 25 | E (E = >25-75% remaining)
14 | Cn1ncc(-c2ccc3c(c2)CN(C2CCC(=O)NC2=O)C3=O)c1-c1ccc(Cl)cc1Cl (stereo not shown) [Example 148] | E (E = >25-75% remaining) | < 25 | < 25 | F (F = >75-100% remaining)
15 | COc1ccc2cc(-c3c(-c4ccc5c(c4)CN(C4CCC(=O)NC4=O)C5=O)cnn3C)ccc2c1 (stereo not shown) [Example 149] | D (D = >10- 25% remaining) | < 25 | < 25 | F (F = >75-100% remaining)
16 | CN1CCN(Cc2ccc(-c3c(-c4ccc5c(c4)CN(C4CCC(=O)NC4=O)C5=O)cnn3C)cc2)CC1 (stereo not shown) [Example 154] | E (E = >25-75% remaining) | ≥ 25 | ≥ 25 | F (F = >75-100% remaining)
17 | Cn1ncc(-c2ccc3c(c2)CN(C2CCC(=O)NC2=O)C3=O)c1-c1ccc2c(c1)OCC2 (stereo not shown) [Example 155] | E (E = >25-75% remaining) | < 25 | ≥ 25 | F (F = >75-100% remaining)

Other lines, results leading:

Row | CK1α Ymin (CK1α) | DC50 (CK1α) [nM] | DC50 (GSPT1) [nM] | GSPT1 Ymin (GSPT1) | SMILES
18 | C (C = 0-10% remaining) | ≥ 25 | ≥ 25 | F (F = >75-100% remaining) | CN(C)C(=O)c1ccc(-c2c(-c3ccc4c(c3)CN(C3CCC(=O)NC3=O)C4=O)cnn2C)cc1 (stereo not shown) [Example 121]
19 | E (E = >25-75% remaining) | < 25 | ≥ 25 | F (F = >75-100% remaining) | Cn1ncc(-c2ccc3c(c2)CN(C2CCC(=O)NC2=O)C3=O)c1-c1cccc(C#N)c1 (stereo not shown) [Example 123]
20 | C (C = 0-10% remaining) | < 25 | ≥ 25 | F (F = >75-100% remaining) | Cn1ncc(-c2ccc3c(c2)CN(C2CCC(=O)NC2=O)C3=O)c1-c1ccc(N)cc1 (stereo not shown) [Example 124]
21 | E (E = >25-75% remaining) | < 25 | ≥ 25 | F (F = >75-100% remaining) | Cn1ncc(-c2ccc3c(c2)CN(C2CCC(=O)NC2=O)C3=O)c1-c1ccccc1N (stereo not shown) [Example 127]
22 | E (E = >25-75% remaining) | < 25 | ≥ 25 | F (F = >75-100% remaining) | Cn1ncc(-c2ccc3c(c2)CN(C2CCC(=O)NC2=O)C3=O)c1-c1cccc(Cl)c1 (stereo not shown) [Example 129]
23 | E (E = >25-75% remaining) | < 25 | ≥ 25 | F (F = >75-100% remaining) | Cn1ncc(-c2ccc3c(c2)CN(C2CCC(=O)NC2=O)C3=O)c1-c1ccccc1Cl (stereo not shown) [Example 132]
24 | E (E = >25-75% remaining) | ≥ 25 | ≥ 25 | F (F = >75-100% remaining) | Cn1ncc(-c2ccc3c(c2)CN(C2CCC(=O)NC2=O)C3=O)c1-c1ccc(Oc2cccnc2)cc1 (stereo not shown) [Example 133]
25 | E (E = >25-75% remaining) | < 25 | ≥ 25 | F (F = >75-100% remaining) | Cn1ncc(-c2ccc3c(c2)CN(C2CCC(=O)NC2=O)C3=O)c1-c1ccc(F)c(F)c1 (stereo not shown) [Example 134]
26 | E (E = >25-75% remaining) | < 25 | ≥ 25 | F (F = >75-100% remaining) | Cn1ncc(-c2ccc3c(c2)CN(C2CCC(=O)NC2=O)C3=O)c1-c1cccc(F)c1 (stereo not shown) [Example 135]
27 | D (D = >10- 25% remaining) | < 25 | ≥ 25 | F (F = >75-100% remaining) | Cn1ncc(-c2ccc3c(c2)CN(C2CCC(=O)NC2=O)C3=O)c1-c1ccc2ccccc2c1 (stereo not shown) [Example 136]
28 | E (E = >25-75% remaining) | ≥ 25 | < 25 | F (F = >75-100% remaining) | Cn1ncc(-c2ccc3c(c2)CN(C2CCC(=O)NC2=O)C3=O)c1-c1cccc(C(N)=O)c1 (stereo not shown) [Example 138]
29 | E (E = >25-75% remaining) | < 25 | ≥ 25 | F (F = >75-100% remaining) | COCc1ccc(-c2c(-c3ccc4c(c3)CN(C3CCC(=O)NC3=O)C4=O)cnn2C)cc1 (stereo not shown) [Example 141]
30 | D (D = >10- 25% remaining) | < 25 | ≥ 25 | F (F = >75-100% remaining) | Cn1ncc(-c2ccc3c(c2)CN(C2CCC(=O)NC2=O)C3=O)c1-c1ccc(O)cc1 (stereo not shown) [Example 142]
31 | E (E = >25-75% remaining) | < 25 | ≥ 25 | F (F = >75-100% remaining) | Cn1ncc(-c2ccc3c(c2)CN(C2CCC(=O)NC2=O)C3=O)c1-c1ccc(-c2ccccc2)cc1 (stereo not shown) [Example 144]
32 | C (C = 0-10% remaining) | < 25 | < 25 | F (F = >75-100% remaining) | Cn1ncc(-c2ccc3c(c2)CN(C2CCC(=O)NC2=O)C3=O)c1-c1ccccc1-c1ccccc1 (stereo not shown) [Example 145]
33 | C (C = 0-10% remaining) | < 25 | ≥ 25 | F (F = >75-100% remaining) | Cn1ncc(-c2ccc3c(c2)CN(C2CCC(=O)NC2=O)C3=O)c1-c1cccc(N)c1 (stereo not shown) [Example 147]
34 | D (D = >10- 25% remaining) | < 25 | ≥ 25 | F (F = >75-100% remaining) | Cn1ncc(-c2ccc3c(c2)CN(C2CCC(=O)NC2=O)C3=O)c1-c1ccc(-n2cccn2)cc1 (stereo not shown) [Example 150]
35 | E (E = >25-75% remaining) | < 25 | ≥ 25 | F (F = >75-100% remaining) | Cc1ccc(-c2c(-c3ccc4c(c3)CN(C3CCC(=O)NC3=O)C4=O)cnn2C)cc1F (stereo not shown) [Example 151]
36 | E (E = >25-75% remaining) | ≥ 25 | ≥ 25 | F (F = >75-100% remaining) | Cn1ncc(-c2ccc3c(c2)CN(C2CCC(=O)NC2=O)C3=O)c1-c1ccccc1C#N (stereo not shown) [Example 152]
37 | D (D = >10- 25% remaining) | < 25 | ≥ 25 | F (F = >75-100% remaining) | Cn1ncc(-c2ccc3c(c2)CN(C2CCC(=O)NC2=O)C3=O)c1-c1ccc(-c2ccncc2)cc1 (stereo not shown) [Example 153]
